Assay results from PubChem BioAssay AID248 (DTP/NCI, 2004).
“And” between values parts separate entries of the source, which are not always exact repeats. Equal values may be shown once. Inconclusive results and toxic doses are left out.

Test system: L1210 leukemia ip in BDF1 mice, survival T/C
Experiment: NCI In Vivo Anticancer Drug Screen. Data for tumor model L1210 Leukemia (intraperitoneal) in B6D2F1 (BDF1) mice
Conditions: endpoint: mean survival time, higher = longer survival
Method in brief: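 Read-out is survival time, reported as the treated-group measurement over the vehicle-control measurement.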

[1] = dose: 100.0 mg/kg/injection, schedule: Q04DX003 (ip), vehicle: saline with Tween-80
[2] = dose: 200.0 mg/kg/injection, schedule: Q04DX003 (ip), vehicle: saline with Tween-80
[3] = dose: 400.0 mg/kg/injection, schedule: Q04DX003 (ip), vehicle: saline with Tween-80

NC(=O)C1=C(N)CCC1
T/C [1]: 100 % of control | T/C [2]: 95 % of control | T/C [3]: 97 % of control

CCOC(=O)C(CCNC(=O)c1ccccc1)C(=O)OCC
T/C (dose: 100.0 mg/kg/injection, schedule: Q01DX009 (ip), vehicle: Klucel (hydroxypropylcellulose) (HPC)): 103 % of control | T/C (dose: 100.0 mg/kg/injection, schedule: Q04DX003 (ip), vehicle: Klucel (hydroxypropylcellulose) (HPC)): 93 % of control | T/C (dose: 200.0 mg/kg/injection, schedule: Q01DX009 (ip), vehicle: Klucel (hydroxypropylcellulose) (HPC)): 91 % of control | T/C (dose: 200.0 mg/kg/injection, schedule: Q04DX003 (ip), vehicle: Klucel (hydroxypropylcellulose) (HPC)): 95 % of control | T/C (dose: 400.0 mg/kg/injection, schedule: Q01DX009 (ip), vehicle: Klucel (hydroxypropylcellulose) (HPC)): 89 % of control | T/C (dose: 400.0 mg/kg/injection, schedule: Q04DX003 (ip), vehicle: Klucel (hydroxypropylcellulose) (HPC)): 93 % of control

CNc1ccc(C(=O)c2ccccc2C(=O)O)cc1[N+](=O)[O-]
T/C (dose: 100.0 mg/kg/injection, schedule: Q01DX009 (ip), vehicle: saline with Tween-80): 92 % of control | T/C [1]: 97 % of control | T/C (dose: 200.0 mg/kg/injection, schedule: Q01DX009 (ip), vehicle: saline with Tween-80): 95 % of control | T/C [2]: 89 % of control | T/C (dose: 400.0 mg/kg/injection, schedule: Q01DX009 (ip), vehicle: saline with Tween-80): 93 % of control | T/C [3]: 94 % of control

CCCc1cc(C)cc2nc(-c3ccccc3)oc12
T/C [1]: 101 % of control | T/C [2]: 95 % of control | T/C [3]: 89 % of control

COC(/C=C/c1ccccc1)=N\S(=O)(=O)c1ccccc1
T/C (dose: 50.0 mg/kg/injection, schedule: Q01DX001 (ip), vehicle: Klucel (hydroxypropylcellulose) (HPC)): 98 % of control | T/C (dose: 100.0 mg/kg/injection, schedule: Q01DX001 (ip), vehicle: Klucel (hydroxypropylcellulose) (HPC)): 100 % of control | T/C (dose: 200.0 mg/kg/injection, schedule: Q01DX001 (ip), vehicle: Klucel (hydroxypropylcellulose) (HPC)): 107 % of control

C=CC[n+]1c(C)ccc2ccccc21
T/C (dose: 25.0 mg/kg/injection, schedule: Q01DX009 (ip), vehicle: saline with Tween-80): 100 % of control | T/C (dose: 50.0 mg/kg/injection, schedule: Q01DX009 (ip), vehicle: saline with Tween-80): 115 % of control | T/C (dose: 100.0 mg/kg/injection, schedule: Q01DX001 (ip), vehicle: saline with Tween-80): 114 % of control

CS(=N)(=O)c1ccccc1 (stereo not drawn)
T/C (dose: 100.0 mg/kg/injection, schedule: Q01DX009 (ip), vehicle: other): 99 % of control | T/C (dose: 100.0 mg/kg/injection, schedule: Q04DX003 (ip), vehicle: saline): 97 % of control | T/C (dose: 200.0 mg/kg/injection, schedule: Q01DX009 (ip), vehicle: other): 95 % of control | T/C (dose: 200.0 mg/kg/injection, schedule: Q04DX003 (ip), vehicle: saline): 100 % of control | T/C (dose: 400.0 mg/kg/injection, schedule: Q01DX009 (ip), vehicle: other): 97 % of control | T/C (dose: 400.0 mg/kg/injection, schedule: Q04DX003 (ip), vehicle: saline): 97 % of control

Cc1ccc2c(c1)C(c1ccccc1)(c1ccccc1)OC2
T/C (dose: 50.0 mg/kg/injection, schedule: Q01DX001 (ip), vehicle: carboxymethylcellulose (CMC)): 101 % of control | T/C (dose: 100.0 mg/kg/injection, schedule: Q01DX001 (ip), vehicle: carboxymethylcellulose (CMC)): 95 % of control | T/C (dose: 200.0 mg/kg/injection, schedule: Q01DX001 (ip), vehicle: carboxymethylcellulose (CMC)): 89 % of control | T/C (dose: 400.0 mg/kg/injection, schedule: Q01DX001 (ip), vehicle: carboxymethylcellulose (CMC)): 101 % of control

O=C(Nc1ccc(NC(=O)Nc2cccc(C3=NCCN3)c2)cc1)Nc1ccc(C2=NCCN2)cc1
T/C (dose: 1.0 mg/kg/injection, schedule: Q01DX Z (ip), vehicle: carboxymethylcellulose (CMC)): 88 % of control | T/C (dose: 2.0 mg/kg/injection, schedule: Q01DX Z (ip), vehicle: carboxymethylcellulose (CMC)): 102 % of control | T/C (dose: 4.0 mg/kg/injection, schedule: Q01DX Z (ip), vehicle: carboxymethylcellulose (CMC)): 95 % of control | T/C (dose: 8.0 mg/kg/injection, schedule: Q01DX Z (ip), vehicle: carboxymethylcellulose (CMC)): 107 % of control | T/C (dose: 14.0 mg/kg/injection, schedule: Q01DX Z (oral), vehicle: carboxymethylcellulose (CMC)): 108 % of control | T/C (dose: 18.0 mg/kg/injection, schedule: Q01DX Z (ip), vehicle: carboxymethylcellulose (CMC)): 202 % of control | T/C (dose: 21.0 mg/kg/injection, schedule: Q01DX Z (oral), vehicle: carboxymethylcellulose (CMC)): 109 % of control | T/C (dose: 32.0 mg/kg/injection, schedule: Q01DX Z (oral), vehicle: carboxymethylcellulose (CMC)): 103 % of control | T/C (dose: 36.0 mg/kg/injection, schedule: Q01DX Z (ip), vehicle: carboxymethylcellulose (CMC)): 116 % of control | T/C (dose: 48.0 mg/kg/injection, schedule: Q01DX Z (oral), vehicle: carboxymethylcellulose (CMC)): 103 % of control | T/C (dose: 62.0 mg/kg/injection, schedule: Q01DX Z (ip), vehicle: saline): 164 % of control | T/C (dose: 72.0 mg/kg/injection, schedule: Q01DX Z (oral), vehicle: carboxymethylcellulose (CMC)): 122 % of control | T/C (dose: 125.0 mg/kg/injection, schedule: Q01DX Z (ip), vehicle: saline): 91 % of control

COc1ccc(COC2C(CO)OC(n3cnc4c(N)ncnc43)C2O)cc1 (stereo not drawn)
T/C (dose: 100.0 mg/kg/injection, schedule: Q01DX005 (ip), vehicle: saline): 97 % of control | T/C (dose: 200.0 mg/kg/injection, schedule: Q01DX005 (ip), vehicle: saline): 100 % of control

CC(=O)OC1OCC(COC(=O)c2ccc([N+](=O)[O-])cc2)C1OC(=O)c1ccc([N+](=O)[O-])cc1 (stereo not drawn)
T/C (dose: 100.0 mg/kg/injection, schedule: Q01DX001 (ip), vehicle: saline): 92 % of control | T/C (dose: 200.0 mg/kg/injection, schedule: Q01DX001 (ip), vehicle: saline): 92 % of control | T/C (dose: 400.0 mg/kg/injection, schedule: Q01DX001 (ip), vehicle: saline): 95 % of control

O=[As](O)(c1cccc(Cl)c1)C1CCCCC1O (stereo not drawn)
T/C (dose: 25.0 mg/kg/injection, schedule: Q04DX003 (ip), vehicle: saline with Tween-80): 91 % of control | T/C (dose: 50.0 mg/kg/injection, schedule: Q04DX003 (ip), vehicle: saline with Tween-80): 89 % of control

CC(=O)OC1CC2(O)C3CCC4CC(O)CCC4(C)C3CCC2(C)C1c1ccc(=O)oc1 (stereo not drawn)
T/C (dose: 100.0 mg/kg/injection, schedule: Q01DX001 (sc), vehicle: steriod suspending solution): 107 % of control | T/C (dose: 200.0 mg/kg/injection, schedule: Q01DX001 (sc), vehicle: steriod suspending solution): 101 % of control | T/C (dose: 400.0 mg/kg/injection, schedule: Q01DX001 (sc), vehicle: steriod suspending solution): 107 % of control

C/C=N\NC(N)=O
T/C (dose: 25.0 mg/kg/injection, schedule: Q04DX003 (ip), vehicle: saline): 94 % of control | T/C (dose: 50.0 mg/kg/injection, schedule: Q04DX003 (ip), vehicle: saline): 100 % of control

CC[N+](CC)(CCO)CCCCCCCCCC[N+](CC)(CC)CCO
T/C (dose: 0.15 mg/kg/injection, schedule: Q04DX003 (ip), vehicle: saline): 100 % of control | T/C (dose: 0.3 mg/kg/injection, schedule: Q04DX003 (ip), vehicle: saline): 103 % of control | T/C (dose: 0.6 mg/kg/injection, schedule: Q04DX003 (ip), vehicle: saline): 105 % of control

COc1cccc(NC(=S)NN)c1
T/C (dose: 12.5 mg/kg/injection, schedule: Q04DX002 (ip), vehicle: Klucel (hydroxypropylcellulose) (HPC)): 92 % of control | T/C (dose: 25.0 mg/kg/injection, schedule: Q04DX002 (ip), vehicle: Klucel (hydroxypropylcellulose) (HPC)): 117 % of control

O=C(Nc1ccc(NC2=NCCN2)cc1)c1ccc(C(=O)Nc2ccc(NC3=NCCN3)cc2)c([N+](=O)[O-])c1
T/C (dose: 1.88 mg/kg/injection, schedule: Q01DX Z (ip), vehicle: saline): 92 % of control | T/C (dose: 3.75 mg/kg/injection, schedule: Q01DX Z (ip), vehicle: saline): 97 % of control | T/C (dose: 7.5 mg/kg/injection, schedule: Q01DX Z (ip), vehicle: saline): 106 % of control | T/C (dose: 7.5 mg/kg/injection, schedule: Q01DX Z (oral), vehicle: saline): 94 % of control | T/C (dose: 15.0 mg/kg/injection, schedule: Q01DX Z (ip), vehicle: saline): 110 % of control and 89 % of control | T/C (dose: 15.0 mg/kg/injection, schedule: Q01DX Z (oral), vehicle: saline): 95 % of control | T/C (dose: 30.0 mg/kg/injection, schedule: Q01DX Z (oral), vehicle: saline): 91 % of control | T/C (dose: 60.0 mg/kg/injection, schedule: Q01DX Z (oral), vehicle: saline): 100 % of control

S=C(Nc1ccc(Cl)c(Cl)c1)SCc1ccc(Cl)c(Cl)c1
T/C (dose: 15.0 mg/kg/injection, schedule: Q04DX003 (ip), vehicle: saline): 97 % of control | T/C (dose: 30.0 mg/kg/injection, schedule: Q04DX003 (ip), vehicle: saline): 101 % of control | T/C (dose: 60.0 mg/kg/injection, schedule: Q04DX003 (ip), vehicle: saline): 101 % of control | T/C (dose: 100.0 mg/kg/injection, schedule: Q04DX002 (ip), vehicle: saline): 88 % of control | T/C (dose: 200.0 mg/kg/injection, schedule: Q04DX002 (ip), vehicle: saline): 112 % of control | T/C (dose: 400.0 mg/kg/injection, schedule: Q04DX002 (ip), vehicle: saline): 88 % of control
